Experimental data published in PubChem BioAssay (NCI).
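Cells were grown in 96-well plates and exposed to each compound for 48 hours at five concentrations; endpoints were interpolated linearly between bracketing concentrations, or set to the highest concentration if not reached. The concentration for 50% growth inhibition is given as GI50. TGI is the concentration that stops growth completely.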

How the values were obtained:
Assay in all cases: NCI-60 cell line screen, 48 h
OVCAR-4 ovarian = system: OVCAR-4 ovarian
K-562 leukemia = system: K-562 leukemia
RPMI-8226 leukemia = system: RPMI-8226 leukemia
HCT-116 colon = system: HCT-116 colon
M14 melanoma = system: M14 melanoma
MDA-MB-435 = system: MDA-MB-435
SNB-75 CNS = system: SNB-75 CNS
SK-MEL-28 melanoma = system: SK-MEL-28 melanoma
SR leukemia = system: SR leukemia
CAKI-1 renal = system: CAKI-1 renal
PC-3 prostate = system: PC-3 prostate
OVCAR-8 ovarian = system: OVCAR-8 ovarian
NCI/ADR-RES ovarian = system: NCI/ADR-RES ovarian
SNB-19 CNS = system: SNB-19 CNS
SK-OV-3 ovarian = system: SK-OV-3 ovarian
IGROV1 ovarian = system: IGROV1 ovarian
SN12C renal = system: SN12C renal
ACHN renal = system: ACHN renal
BT-549 breast = system: BT-549 breast
NCI-H460 lung = system: NCI-H460 lung
786-0 renal = system: 786-0 renal
UACC-62 melanoma = system: UACC-62 melanoma
KM12 colon = system: KM12 colon
HOP-92 NSCLC = system: HOP-92 NSCLC
EKVX NSCLC = system: EKVX NSCLC
TK-10 renal = system: TK-10 renal
UO-31 renal = system: UO-31 renal
NCI-H23 lung = system: NCI-H23 lung
COLO 205 colon = system: COLO 205 colon
SW-620 colon = system: SW-620 colon
OVCAR-3 ovarian = system: OVCAR-3 ovarian
OVCAR-5 ovarian = system: OVCAR-5 ovarian
UACC-257 melanoma = system: UACC-257 melanoma
SF-295 CNS = system: SF-295 CNS
MDA-MB-468 breast = system: MDA-MB-468 breast
MCF7 breast = system: MCF7 breast
MALME-3M melanoma = system: MALME-3M melanoma
HOP-62 NSCLC = system: HOP-62 NSCLC
SF-539 CNS = system: SF-539 CNS
HT29 colon = system: HT29 colon
CCRF-CEM leukemia = system: CCRF-CEM leukemia
HL-60(TB) leukemia = system: HL-60(TB) leukemia
MDA-MB-231 breast = system: MDA-MB-231 breast
SK-MEL-5 melanoma = system: SK-MEL-5 melanoma
HCC-2998 colon = system: HCC-2998 colon
NCI-H226 lung = system: NCI-H226 lung
HCT-15 colon = system: HCT-15 colon
RXF 393 renal = system: RXF 393 renal
DU-145 prostate = system: DU-145 prostate
NCI-H522 lung = system: NCI-H522 lung
A498 renal = system: A498 renal
HS 578T breast = system: HS 578T breast
SF-268 CNS = system: SF-268 CNS
LOX IMVI melanoma = system: LOX IMVI melanoma
A549 NSCLC = system: A549 NSCLC
SK-MEL-2 melanoma = system: SK-MEL-2 melanoma
U251 CNS = system: U251 CNS
MOLT-4 leukemia = system: MOLT-4 leukemia

Question: What does the source list for O=C(Nc1ccc(OCc2ccccc2)cc1)Nc1ccc(Cl)c(C(F)(F)F)c1?
Answer: GI50 (OVCAR-4 ovarian): 2370 nM; TGI (OVCAR-4 ovarian): 27 µM; GI50 (K-562 leukemia): 2340 nM; TGI (K-562 leukemia): > 64.3 µM; GI50 (RPMI-8226 leukemia): 1690 nM; TGI (RPMI-8226 leukemia): 7.56 µM; GI50 (HCT-116 colon): 1900 nM; TGI (HCT-116 colon): 11.5 µM; GI50 (M14 melanoma): 2170 nM; TGI (M14 melanoma): > 64.3 µM; GI50 (MDA-MB-435): 1980 nM; TGI (MDA-MB-435): 27.2 µM; GI50 (SNB-75 CNS): 1790 nM; TGI (SNB-75 CNS): 6.18 µM; GI50 (SK-MEL-28 melanoma): 2020 nM; TGI (SK-MEL-28 melanoma): > 64.3 µM; GI50 (SR leukemia): 2190 nM; TGI (SR leukemia): 13.2 µM; GI50 (CAKI-1 renal): 1610 nM; TGI (CAKI-1 renal): 5.46 µM; GI50 (PC-3 prostate): 1780 nM; TGI (PC-3 prostate): 7.16 µM; GI50 (OVCAR-8 ovarian): 2100 nM; TGI (OVCAR-8 ovarian): 41.3 µM; GI50 (NCI/ADR-RES ovarian): 1940 nM; TGI (NCI/ADR-RES ovarian): 7.23 µM; GI50 (SNB-19 CNS): 2010 nM; TGI (SNB-19 CNS): 14.1 µM; GI50 (SK-OV-3 ovarian): 1810 nM; TGI (SK-OV-3 ovarian): 4.99 µM; GI50 (IGROV1 ovarian): 2570 nM; TGI (IGROV1 ovarian): > 64.3 µM; GI50 (SN12C renal): 1750 nM; TGI (SN12C renal): 6.71 µM; GI50 (ACHN renal): 1760 nM; TGI (ACHN renal): 4.93 µM; GI50 (BT-549 breast): 1620 nM; TGI (BT-549 breast): 4.68 µM; GI50 (NCI-H460 lung): 1690 nM; TGI (NCI-H460 lung): 5.61 µM; GI50 (786-0 renal): 2090 nM; TGI (786-0 renal): 9.89 µM; GI50 (UACC-62 melanoma): 1820 nM; TGI (UACC-62 melanoma): 11 µM; GI50 (KM12 colon): 2100 nM; TGI (KM12 colon): 12 µM; GI50 (HOP-92 NSCLC): 1340 nM; TGI (HOP-92 NSCLC): 3.83 µM; GI50 (EKVX NSCLC): 1910 nM; TGI (EKVX NSCLC): 7.09 µM; GI50 (TK-10 renal): 2400 nM; TGI (TK-10 renal): 30.1 µM; GI50 (UO-31 renal): 1600 nM; TGI (UO-31 renal): 5.31 µM; GI50 (NCI-H23 lung): 1500 nM; TGI (NCI-H23 lung): 4.39 µM; GI50 (COLO 205 colon): 1670 nM; TGI (COLO 205 colon): 4.25 µM; GI50 (SW-620 colon): 2000 nM; TGI (SW-620 colon): 11.2 µM; GI50 (OVCAR-3 ovarian): 1610 nM; TGI (OVCAR-3 ovarian): 4.96 µM; GI50 (OVCAR-5 ovarian): 3.25 µM; TGI (OVCAR-5 ovarian): 58.3 µM; GI50 (UACC-257 melanoma): 1400 nM; TGI (UACC-257 melanoma): 5.67 µM; GI50 (SF-295 CNS): 1760 nM; TGI (SF-295 CNS): 5.44 µM; GI50 (MDA-MB-468 breast): 1420 nM; TGI (MDA-MB-468 breast): 4.12 µM; GI50 (MCF7 breast): 1810 nM; TGI (MCF7 breast): 6.77 µM; GI50 (MALME-3M melanoma): 1540 nM; TGI (MALME-3M melanoma): 4.36 µM; GI50 (HOP-62 NSCLC): 2110 nM; TGI (HOP-62 NSCLC): 41.1 µM; GI50 (SF-539 CNS): 2340 nM; TGI (SF-539 CNS): 9.41 µM; GI50 (HT29 colon): 2250 nM; TGI (HT29 colon): 10.2 µM; GI50 (CCRF-CEM leukemia): 1690 nM; TGI (CCRF-CEM leukemia): 5.2 µM; GI50 (HL-60(TB) leukemia): 1540 nM; TGI (HL-60(TB) leukemia): 7.77 µM; GI50 (MDA-MB-231 breast): 2580 nM; TGI (MDA-MB-231 breast): 11.1 µM; GI50 (SK-MEL-5 melanoma): 2140 nM; TGI (SK-MEL-5 melanoma): 8.25 µM; GI50 (HCC-2998 colon): 2190 nM; TGI (HCC-2998 colon): 29.8 µM; GI50 (NCI-H226 lung): 2000 nM; TGI (NCI-H226 lung): 7.03 µM; GI50 (HCT-15 colon): 2000 nM; TGI (HCT-15 colon): 14 µM; GI50 (RXF 393 renal): 4.53 µM; TGI (RXF 393 renal): 41.2 µM; GI50 (DU-145 prostate): 2280 nM; TGI (DU-145 prostate): 21.1 µM; GI50 (NCI-H522 lung): 1290 nM; TGI (NCI-H522 lung): 3.52 µM; GI50 (A498 renal): 1240 nM; TGI (A498 renal): 3.9 µM; GI50 (HS 578T breast): 1900 nM; TGI (HS 578T breast): 15.7 µM; GI50 (SF-268 CNS): 2280 nM; TGI (SF-268 CNS): > 64.3 µM; GI50 (LOX IMVI melanoma): 2020 nM; TGI (LOX IMVI melanoma): 7.36 µM; GI50 (A549 NSCLC): 1830 nM; TGI (A549 NSCLC): 15.2 µM; GI50 (SK-MEL-2 melanoma): 1510 nM; TGI (SK-MEL-2 melanoma): 3.65 µM; GI50 (U251 CNS): 2000 nM; TGI (U251 CNS): 6.59 µM; GI50 (MOLT-4 leukemia): 2500 nM; TGI (MOLT-4 leukemia): 18.1 µM
